Results taken from paper PMC11204923, “Marine Cytotoxin Santacruzamate A Derivatives as Potent HDAC1-3 Inhibitors and Their Synergistic Anti-Leukemia Effects with Venetoclax” (Marine Drugs, 2024).
pIC50: −log10 of the molar value.

How the values were obtained:
[1] = system: MV4-11, THP-1, HL60 and Kasumi-1 cells; assay: Cell viability assay, four AML cell lines together; assay type: cell-based; settings: 72 h; read-out: IC50 values against four AML cell lines (range)
Protocol: The AML cell lines MV4-11, THP-1, KASUMI-1 and HL-60 were purchased from Procell Life Science & Technology Co., Ltd. (Wuhan, China). THP-1 and KASUMI-1 were cultured in RPMI-1640 complete medium containing 10% fetal bovine serum and 1% penicillin and streptomycin. MV4-11 was cultured in IMDM complete medium containing 10% fetal bovine serum and 1% penicillin and streptomycin. HL-60 was cultured in IMDM complete medium containing 20% fetal bovine serum and 1% penicillin and streptomycin. All cell lines were cultured in an incubator with humidity set at 95%, temperature at 37 °C and 5% CO2.
MV4-11, THP-1, KASUMI-1 and HL-60 cells were plated in 96-well transparent plates (10,000 to 15,000 cells/100 μL) and after incubation overnight, cells were treated with gradient-diluted inhibitors with several concentrations. After the cells were incubated with inhibitors for 72 h, 1 mg/mL of Resazurin (Sigma-Aldrich, Saint Louis, MO, USA) was added (working concentration was 0.1 mg/mL). After incubation at 37 °C for about 3 h, the fluorescence intensity of […] was measured at 560 nm/590 nm (excitation/emission) with a Spectra Max i3 Microplate Reader, and the cell viability was determined. The IC50 curve was drawn using GraphPad Prism 9.5 software.

MV4-11 cells = assay: Western blot analysis; assay type: cell-based; settings: 24 h
Protocol: MV4-11 cells were inoculated into 12-well plates at a density of 800,000 cells/mL. After incubation overnight, each well was treated with different concentrations of 25c and Venetoclax alone or in combination. After treatment for 24 h, the cells were collected and washed with pre-cooled PBS. A protease inhibitor (cocktail) and RIPA buffer were added for cell lysis. The decomposed solution was centrifuged at 12,000 rpm for 15 min at 4 °C, and the extracted protein was located in the supernatant. The proteins in each sample were denatured by heating at 100 °C in loading buffer (5×) for 10 min. The same amount of proteins in each sample was separated by SDS-PAGE and then electrotransferred to a PVDF membrane (Merck Millipore, Billerica, MA, USA) and enclosed in 5% skim milk powder for 1 h. The primary antibody diluted with an immune response booster solution was incubated in a shaking bed at 4 °C overnight, and the horseradish (HRP)-conjugated second antibody diluted with 5% skim milk powder was incubated at room temperature for 1 h on the second day. After the PVDF membrane was washed with TBST, the target protein bands could be detected with chemiluminescent reagents (Millipore, Billerica, MA, USA) and visualized in the Tanon 5200 + fluorescence imager.
The primary antibodies Caspase 3 (including Cleaved Caspase-3) (sc-56053), Mcl-1 (94296S), Bcl-xL (ab98143), γ-H2AX (9718S), AcHH3 (Lys27) (8173S), AcHH4 (sc-377520), HH3 (ab1791), Ac-tubulin (sc-23950), HDAC6 (sc-28386), α-tubulin (sc-23948), GAPDH (sc-59540) and β-actin (8H10D10) were purchased from Abcam, Cell Signaling Technology and Santa Cruz Biotechnology.

HDAC4 = target: T1, HDAC4 (Homo sapiens, UniProt P56524); assay: In vitro HDAC inhibition fluorescence assay, HDAC4; assay type: biochemical
T1 construct: purchased BPS Bioscience
Protocol: (§1) All of the HDAC enzymes were purchased from BPS Bioscience. In vitro HDAC inhibition assays were conducted as previously described. In brief, 20 μL of recombinant HDAC enzyme solution (HDAC1-9, 11) was mixed with various concentrations of the tested compound (20 μL). The mixture was incubated at 37 °C for 1 h, and then, 10 μL of fluorogenic substrate (Boc-Lys (acetyl)-AMC for HDAC1, 2, 3 and 6; Boc-Lys (trifluoroacetyl)AMC for HDAC4, 5, 7, 8, 9 and 11) was added to achieve a final concentration of 50 μM. After incubation at 37 °C for 2 h, the catalysis was stopped by the addition of 10 μL of developer containing 30 mg/mL trypsin and 6 μM trichostatin A (TSA). Then, 30 min later, the fluorescence intensity was measured using a microplate reader at excitation and emission wavelengths of 360 and 460 nm, respectively. The inhibition ratios were calculated from the fluorescence intensity readings of tested wells relative to those of control wells, and the IC50 curves and values were determined by GraphPad Prism 6.0, using the “log(inhibitor) vs. normalized response-variable slope” function.

HDAC5 = target: T2, HDAC5 (Homo sapiens, UniProt Q9UQL6); assay: In vitro HDAC inhibition fluorescence assay, HDAC5; assay type: biochemical
T2 construct: purchased BPS Bioscience
Protocol: as §1

HDAC7 = target: T3, HDAC7 (Homo sapiens, UniProt Q8WUI4); assay: In vitro HDAC inhibition fluorescence assay, HDAC7; assay type: biochemical
T3 construct: purchased BPS Bioscience
T3 sequence (Q8WUI4 1-952): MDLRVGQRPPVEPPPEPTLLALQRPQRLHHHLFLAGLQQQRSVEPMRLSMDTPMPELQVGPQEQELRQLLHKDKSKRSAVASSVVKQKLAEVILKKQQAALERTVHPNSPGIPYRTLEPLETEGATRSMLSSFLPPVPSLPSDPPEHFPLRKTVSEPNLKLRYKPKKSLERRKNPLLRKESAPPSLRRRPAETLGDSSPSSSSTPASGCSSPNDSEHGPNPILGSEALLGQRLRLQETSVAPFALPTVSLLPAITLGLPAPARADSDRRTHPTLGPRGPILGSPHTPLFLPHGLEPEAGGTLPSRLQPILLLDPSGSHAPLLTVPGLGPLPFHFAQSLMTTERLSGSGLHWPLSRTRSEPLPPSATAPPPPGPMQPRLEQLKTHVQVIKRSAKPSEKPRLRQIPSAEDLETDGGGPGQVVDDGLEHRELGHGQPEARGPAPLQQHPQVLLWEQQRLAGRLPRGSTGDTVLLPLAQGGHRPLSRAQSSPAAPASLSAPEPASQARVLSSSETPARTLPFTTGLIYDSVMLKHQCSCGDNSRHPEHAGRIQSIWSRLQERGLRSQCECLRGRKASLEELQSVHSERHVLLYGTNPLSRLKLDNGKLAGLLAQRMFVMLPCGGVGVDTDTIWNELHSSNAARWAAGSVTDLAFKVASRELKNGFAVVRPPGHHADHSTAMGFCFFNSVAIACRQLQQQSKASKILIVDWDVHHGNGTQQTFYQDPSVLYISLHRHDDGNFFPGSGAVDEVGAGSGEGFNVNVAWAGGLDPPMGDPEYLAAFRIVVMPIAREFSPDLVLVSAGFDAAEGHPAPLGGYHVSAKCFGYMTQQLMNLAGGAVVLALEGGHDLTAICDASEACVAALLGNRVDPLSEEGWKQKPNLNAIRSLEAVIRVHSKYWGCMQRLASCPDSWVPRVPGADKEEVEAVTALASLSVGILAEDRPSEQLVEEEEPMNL
Protocol: as §1

T2 sequence (Q9UQL6 whole entry): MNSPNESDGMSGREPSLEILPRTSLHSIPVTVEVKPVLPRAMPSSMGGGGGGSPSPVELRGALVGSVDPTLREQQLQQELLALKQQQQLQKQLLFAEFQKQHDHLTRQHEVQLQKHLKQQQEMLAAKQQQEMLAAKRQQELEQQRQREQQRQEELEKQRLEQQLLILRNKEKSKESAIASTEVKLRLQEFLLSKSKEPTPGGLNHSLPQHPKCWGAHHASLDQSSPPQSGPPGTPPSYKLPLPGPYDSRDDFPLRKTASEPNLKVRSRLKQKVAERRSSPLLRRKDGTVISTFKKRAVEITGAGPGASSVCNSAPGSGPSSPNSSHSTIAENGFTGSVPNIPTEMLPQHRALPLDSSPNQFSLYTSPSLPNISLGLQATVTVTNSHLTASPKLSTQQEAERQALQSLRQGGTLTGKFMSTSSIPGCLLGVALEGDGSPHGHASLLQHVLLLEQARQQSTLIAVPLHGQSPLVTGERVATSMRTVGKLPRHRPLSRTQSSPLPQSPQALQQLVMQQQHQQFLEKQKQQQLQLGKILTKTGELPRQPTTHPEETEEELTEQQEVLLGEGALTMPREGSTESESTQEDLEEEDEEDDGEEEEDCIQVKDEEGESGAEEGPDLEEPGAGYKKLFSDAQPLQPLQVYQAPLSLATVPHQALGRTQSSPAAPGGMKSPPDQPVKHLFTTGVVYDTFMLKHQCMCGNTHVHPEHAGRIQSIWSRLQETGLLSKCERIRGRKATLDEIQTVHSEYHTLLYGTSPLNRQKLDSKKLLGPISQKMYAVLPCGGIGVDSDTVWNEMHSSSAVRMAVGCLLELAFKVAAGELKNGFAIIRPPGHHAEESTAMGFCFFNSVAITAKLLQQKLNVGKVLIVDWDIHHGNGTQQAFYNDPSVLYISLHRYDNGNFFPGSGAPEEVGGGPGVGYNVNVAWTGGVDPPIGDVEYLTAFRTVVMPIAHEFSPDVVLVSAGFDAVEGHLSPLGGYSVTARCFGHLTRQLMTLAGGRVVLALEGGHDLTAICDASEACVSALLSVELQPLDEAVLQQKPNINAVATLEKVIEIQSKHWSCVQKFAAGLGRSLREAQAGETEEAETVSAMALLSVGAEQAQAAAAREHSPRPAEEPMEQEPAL
T1 sequence (P56524 whole entry): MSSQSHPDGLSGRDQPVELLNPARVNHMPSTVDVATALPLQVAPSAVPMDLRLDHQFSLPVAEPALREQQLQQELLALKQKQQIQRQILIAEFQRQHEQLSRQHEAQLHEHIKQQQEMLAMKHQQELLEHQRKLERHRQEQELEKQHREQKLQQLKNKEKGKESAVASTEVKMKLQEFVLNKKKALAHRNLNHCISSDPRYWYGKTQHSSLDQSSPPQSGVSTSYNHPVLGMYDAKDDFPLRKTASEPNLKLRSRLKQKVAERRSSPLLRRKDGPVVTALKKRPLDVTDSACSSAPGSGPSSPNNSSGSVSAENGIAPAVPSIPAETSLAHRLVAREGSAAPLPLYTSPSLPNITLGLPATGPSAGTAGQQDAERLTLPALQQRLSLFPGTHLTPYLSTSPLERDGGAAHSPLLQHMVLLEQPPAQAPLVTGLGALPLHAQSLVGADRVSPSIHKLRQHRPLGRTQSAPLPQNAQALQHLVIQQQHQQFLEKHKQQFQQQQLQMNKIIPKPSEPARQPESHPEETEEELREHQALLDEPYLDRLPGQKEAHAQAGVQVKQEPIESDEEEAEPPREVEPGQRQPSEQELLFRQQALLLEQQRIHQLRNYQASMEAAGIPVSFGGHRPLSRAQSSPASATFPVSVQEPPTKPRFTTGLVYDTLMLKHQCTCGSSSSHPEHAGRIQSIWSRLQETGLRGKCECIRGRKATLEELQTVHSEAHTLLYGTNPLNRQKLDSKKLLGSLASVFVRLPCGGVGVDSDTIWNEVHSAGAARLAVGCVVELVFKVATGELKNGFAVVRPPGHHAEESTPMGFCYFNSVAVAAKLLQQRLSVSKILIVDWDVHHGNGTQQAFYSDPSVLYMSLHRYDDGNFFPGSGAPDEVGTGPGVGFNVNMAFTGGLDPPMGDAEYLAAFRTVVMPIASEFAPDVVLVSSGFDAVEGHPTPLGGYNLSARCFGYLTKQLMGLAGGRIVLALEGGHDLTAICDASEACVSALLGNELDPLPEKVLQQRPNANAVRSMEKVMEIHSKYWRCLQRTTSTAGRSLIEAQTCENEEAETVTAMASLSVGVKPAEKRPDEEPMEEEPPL

CCCNNC(=O)C=Cc1ccc(CNCCc2ccccc2)cc1 [Compound 25c, 3-(4-((Phenethylamino)methyl)phenyl)-N′-propylacrylohydrazide]
pIC50 [1]: 6.32 to 6.47 | level of cleaved-caspase3 (MV4-11 cells; 25c monotherapy, 30 nM and 90 nM): No substantial alterations | level of acetyl-tubulin (MV4-11 cells): increased | level of acetylated histone H3 (AcHH3) (MV4-11 cells): significantly elevated | level of acetylated histone H4 (AcHH4) (MV4-11 cells): significantly elevated | pIC50 (HDAC4): < 5.00 | pIC50 (HDAC5): < 5.00 | pIC50 (HDAC7): < 5.00
